Source: US4704395A, “Cyclic ether esters of 2-substituted-6-(substituted and unsubstituted) dihydrolysergic acid useful as 5HT receptor antagonists” (Eli Lilly and Company, priority 1985, dated 1987)

Target: T1, 5HT2 receptors (Rattus norvegicus, UniProt P14842)
T1 construct: their external jugular veins and thoracic aortas dissected free of connective tissue; from tissue; host or cells: external jugular vein of male Wistar rats
Assay: Apparent dissociation constants (KB) for 5HT2 receptors determined in the rat jugular vein (antagonism of serotonin contraction)
Settings: antagonist incubated one hour, 37° C., maleate salt, read-out: Apparent Dissociation Constants for 5HT2 receptors, -Log Kb ± S.E. (converted)
Description: An initial optimum resting force of 1 and 4 g was applied to the jugular vein and aorta, respectively. […] Exp. Ther., 205, 400 (1978). Alpha receptor antagonist activity was evaluated in the aorta.

T1 sequence (P14842 whole entry): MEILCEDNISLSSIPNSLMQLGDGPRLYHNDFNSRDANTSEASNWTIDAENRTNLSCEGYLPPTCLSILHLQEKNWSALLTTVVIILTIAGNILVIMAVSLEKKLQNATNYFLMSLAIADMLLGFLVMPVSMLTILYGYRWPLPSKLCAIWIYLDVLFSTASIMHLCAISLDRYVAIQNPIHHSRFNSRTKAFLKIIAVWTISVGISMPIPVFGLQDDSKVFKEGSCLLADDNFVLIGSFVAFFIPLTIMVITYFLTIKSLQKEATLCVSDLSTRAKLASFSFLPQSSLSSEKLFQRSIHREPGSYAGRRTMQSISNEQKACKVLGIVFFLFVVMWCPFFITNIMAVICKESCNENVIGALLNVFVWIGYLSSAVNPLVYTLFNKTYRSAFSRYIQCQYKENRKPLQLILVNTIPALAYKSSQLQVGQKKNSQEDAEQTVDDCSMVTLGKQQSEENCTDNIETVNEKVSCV

SMILES	Kb
CC(C)n1cc2c3c(cccc31)[C@H]1C[C@@H](C(=O)OCCCC3CCCO3)CN(C)[C@@H]1C2 (stereo partly shown)	5.62 nM
CC(C)n1cc2c3c(cccc31)[C@H]1C[C@@H](C(=O)OCC3CCCO3)CN(C)[C@@H]1C2 (stereo partly shown)	6.31 nM
CC(C)n1cc2c3c(cccc31)[C@H]1C[C@@H](C(=O)OCC3CCCCO3)CN(C)[C@@H]1C2 (stereo partly shown)	1.91 nM
CC(C)n1cc2c3c(cccc31)[C@H]1C[C@@H](C(=O)OC3CCOCC3)CN(C)[C@@H]1C2	0.129 nM
